This is an account of results in ChEMBL document CHEMBL2429805, “Studies toward the development of new silicon-containing building blocks for the direct (18)F-labeling of peptides” (J Med Chem, 2013).

A short description of series [1]: Half life of the compound in water. Type of series: physicochemical.
The target of series [2] is Gastrin-releasing peptide receptor (Homo sapiens, UniProt P30550). Description: Displacement of [125I]-Tyr4-bombesin from GRP receptor in human PC3 cells. Type of series: cell-based, PC-3.
The subject of series [3] is Pancreas. Put plainly: Biodistribution in pancreas of NMRI nude mouse xenografted with human PC3 cells after 182 mins by gamma-counting analysis. Type of series: ADME, organism-based, PC-3. To be noted: in vivo.
Series [4] relates to Mus musculus. Description: Biodistribution in gallbladder of NMRI nude mouse xenografted with human PC3 cells after 182 mins by gamma-counting analysis. Type of series: ADME, organism-based, Gall bladder, PC-3. To be noted: in vivo. (In general: A xenograft is tissue or cells of one species grown in another, often human tumour cells in immunodeficient mice.)
Series [5] relates to Spleen. Put plainly: Biodistribution in spleen of NMRI nude mouse xenografted with human PC3 cells after 182 mins by gamma-counting analysis. To be noted: in vivo. Type of series: ADME, organism-based, PC-3.
Series [6] concerns Mus musculus. Description: Biodistribution in tumor of NMRI nude mouse xenografted with human PC3 cells after 182 mins by gamma-counting analysis. To be noted: in vivo. Format: ADME, organism-based, Neoplasm, PC-3.
Series [7] relates to Heart. Description: Biodistribution in heart of NMRI nude mouse xenografted with human PC3 cells after 182 mins by gamma-counting analysis. Format: ADME, organism-based, PC-3. To be noted: in vivo.
Series [8] relates to Mus musculus. Put plainly: Biodistribution in adrenal gland of NMRI nude mouse xenografted with human PC3 cells after 104 mins by gamma-counting analysis. Format: ADME, organism-based, PC-3. To be noted: in vivo.
Series [9] relates to Mus musculus. Put plainly: Biodistribution in tumor of NMRI nude mouse xenografted with human PC3 cells at 3.6 to 5.1 MBq after 62 to 170 mins by PET imaging analysis. Type of series: ADME, organism-based, Neoplasm, PC-3. To be noted: in vivo.
Series [10] concerns Pancreas. Put plainly: Biodistribution in pancreas of NMRI nude mouse xenografted with human PC3 cells after 104 mins by gamma-counting analysis. Format: ADME, organism-based, PC-3. To be noted: in vivo.
A short description of series [11]: Ratio of biodistribution in tumor to blood of NMRI nude mouse xenografted with human PC3 cells after 104 mins by gamma-counting analysis. Format: ADME, organism-based, PC-3. To be noted: tumour.
The test system of series [12] is Liver. Description: Biodistribution in liver of NMRI nude mouse xenografted with human PC3 cells after 182 mins by gamma-counting analysis. Format: ADME, organism-based, PC-3. To be noted: in vivo.
Series [13] concerns Spleen. Description: Biodistribution in spleen of NMRI nude mouse xenografted with human PC3 cells after 104 mins by gamma-counting analysis. Format: ADME, organism-based, PC-3. To be noted: in vivo.
Series [14] deals with Lung. Put plainly: Biodistribution in lung of NMRI nude mouse xenografted with human PC3 cells after 182 mins by gamma-counting analysis. Type of series: ADME, organism-based, PC-3. To be noted: in vivo.
Series [15] concerns Muscle tissue. Description: Biodistribution in muscle of NMRI nude mouse xenografted with human PC3 cells after 104 mins by gamma-counting analysis. Type of series: ADME, organism-based, PC-3. To be noted: in vivo.
The test system of series [16] is Kidney. Description: Biodistribution in kidney of NMRI nude mouse xenografted with human PC3 cells after 182 mins by gamma-counting analysis. Format: ADME, organism-based, PC-3. To be noted: in vivo.
Series [17] can be described thus: Stability of the compound in PBS buffer up to 2 hrs. Format: physicochemical.
Series [18] can be described thus: Ratio of biodistribution in tumor to muscle of NMRI nude mouse xenografted with human PC3 cells after 104 mins by gamma-counting analysis. To be noted: in vivo. Format: ADME, organism-based, PC-3.
Series [19] concerns Stomach. Put plainly: Biodistribution in stomach of NMRI nude mouse xenografted with human PC3 cells after 104 mins by gamma-counting analysis. Format: ADME, organism-based, PC-3. To be noted: in vivo.
Series [20] deals with Blood. Description: Biodistribution in blood of NMRI nude mouse xenografted with human PC3 cells after 104 mins by gamma-counting analysis. Type of series: ADME, organism-based, PC-3. To be noted: in vivo.
For series [21], the system named is Lung. Description: Biodistribution in lung of NMRI nude mouse xenografted with human PC3 cells after 104 mins by gamma-counting analysis. Format: ADME, organism-based, PC-3. To be noted: in vivo.
In series [22] the test system is Intestine. Put plainly: Biodistribution in intestine of NMRI nude mouse xenografted with human PC3 cells after 104 mins by gamma-counting analysis. Type of series: ADME, organism-based, PC-3. To be noted: in vivo.
In series [23] the test system is Intestine. Put plainly: Biodistribution in intestine of NMRI nude mouse xenografted with human PC3 cells after 182 mins by gamma-counting analysis. To be noted: in vivo. Format: ADME, organism-based, PC-3.
Series [24] is described as follows: Biodistribution in fat of NMRI nude mouse xenografted with human PC3 cells after 104 mins by gamma-counting analysis. Type of series: ADME, organism-based, Adipose tissue, PC-3. To be noted: in vivo.
The test system of series [25] is Liver. Description: Biodistribution in liver of NMRI nude mouse xenografted with human PC3 cells after 104 mins by gamma-counting analysis. Format: ADME, organism-based, PC-3. To be noted: in vivo.
In series [26] the test system is Bone. Put plainly: Biodistribution in bone of NMRI nude mouse xenografted with human PC3 cells after 104 mins by gamma-counting analysis. Type of series: ADME, organism-based, Bone element, PC-3. To be noted: in vivo.
A short description of series [27]: Biodistribution in urine of NMRI nude mouse xenografted with human PC3 cells after 182 mins by gamma-counting analysis. To be noted: in vivo. Type of series: ADME, organism-based, PC-3.
Series [28] concerns Stomach. Description: Biodistribution in stomach of NMRI nude mouse xenografted with human PC3 cells after 182 mins by gamma-counting analysis. Type of series: ADME, organism-based, PC-3. To be noted: in vivo.
Series [29] deals with Muscle tissue. Put plainly: Biodistribution in muscle of NMRI nude mouse xenografted with human PC3 cells after 182 mins by gamma-counting analysis. Format: ADME, organism-based, PC-3. To be noted: in vivo.
In series [30] the test system is Mus musculus. Description: Biodistribution in abdominal region of NMRI nude mouse xenografted with human PC3 cells at 3.6 to 5.1 MBq after 62 to 170 mins by PET imaging analysis. Format: ADME, organism-based, Abdomen, PC-3. To be noted: in vivo.
Series [31] deals with Blood. Description: Biodistribution in blood of NMRI nude mouse xenografted with human PC3 cells after 182 mins by gamma-counting analysis. Format: ADME, organism-based, PC-3. To be noted: in vivo.
Series [32] deals with Mus musculus. Put plainly: Biodistribution in prostate of NMRI nude mouse xenografted with human PC3 cells after 182 mins by gamma-counting analysis. To be noted: in vivo. Type of series: ADME, organism-based, Prostate gland, PC-3.
Series [33] relates to Bone. Description: Biodistribution in bone of NMRI nude mouse xenografted with human PC3 cells after 182 mins by gamma-counting analysis. Format: ADME, organism-based, Bone element, PC-3. To be noted: in vivo.
For series [34], the system named is Mus musculus. Put plainly: Biodistribution in adrenal gland of NMRI nude mouse xenografted with human PC3 cells after 182 mins by gamma-counting analysis. Format: ADME, organism-based, PC-3. To be noted: in vivo.
Series [35] deals with Kidney. Put plainly: Biodistribution in kidney of NMRI nude mouse xenografted with human PC3 cells after 104 mins by gamma-counting analysis. Type of series: ADME, organism-based, PC-3. To be noted: in vivo.
Series [36] has as its system Mus musculus. Description: Biodistribution in tumor of NMRI nude mouse xenografted with human PC3 cells after 104 mins by gamma-counting analysis. Type of series: ADME, organism-based, Neoplasm, PC-3. To be noted: in vivo.
In series [37] the test system is Heart. Description: Biodistribution in heart of NMRI nude mouse xenografted with human PC3 cells after 104 mins by gamma-counting analysis. Type of series: ADME, organism-based, PC-3. To be noted: in vivo.
Series [38] can be described thus: Ratio of biodistribution in tumor to blood of NMRI nude mouse xenografted with human PC3 cells after 182 mins by gamma-counting analysis. Type of series: ADME, organism-based, PC-3. To be noted: tumour.
In series [39] the test system is Mus musculus. Description: Biodistribution in prostate of NMRI nude mouse xenografted with human PC3 cells after 104 mins by gamma-counting analysis. To be noted: in vivo. Type of series: ADME, organism-based, Prostate gland, PC-3.
Series [40] in a line: Ratio of biodistribution in tumor to muscle of NMRI nude mouse xenografted with human PC3 cells after 182 mins by gamma-counting analysis. Format: ADME, organism-based, PC-3. To be noted: in vivo.
Series [41] concerns Mus musculus. Put plainly: Biodistribution in gallbladder of NMRI nude mouse xenografted with human PC3 cells after 104 mins by gamma-counting analysis. Format: ADME, organism-based, Gall bladder, PC-3. To be noted: in vivo.
Series [42] can be described thus: Biodistribution in fat of NMRI nude mouse xenografted with human PC3 cells after 182 mins by gamma-counting analysis. To be noted: in vivo. Format: ADME, organism-based, Adipose tissue, PC-3.
Series [43] is described as follows: Biodistribution in urine of NMRI nude mouse xenografted with human PC3 cells after 104 mins by gamma-counting analysis. Type of series: ADME, organism-based, PC-3. To be noted: in vivo.

Where only a bound is given, the exact number is not on record here.

Chain of Gastrin-releasing peptide receptor (P30550 whole entry): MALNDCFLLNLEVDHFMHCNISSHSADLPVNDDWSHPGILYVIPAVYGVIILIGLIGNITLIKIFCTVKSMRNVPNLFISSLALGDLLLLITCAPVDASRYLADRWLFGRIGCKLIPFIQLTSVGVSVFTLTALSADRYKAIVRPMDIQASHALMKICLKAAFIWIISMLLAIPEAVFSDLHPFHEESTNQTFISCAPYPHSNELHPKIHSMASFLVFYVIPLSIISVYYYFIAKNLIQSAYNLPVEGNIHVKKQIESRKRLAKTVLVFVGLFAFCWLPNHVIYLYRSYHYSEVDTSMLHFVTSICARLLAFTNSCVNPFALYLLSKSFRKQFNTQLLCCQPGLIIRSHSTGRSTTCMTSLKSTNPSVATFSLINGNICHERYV

As usually defined, the half-life is how long it takes for the measured level to halve. In turn, `CC(C)(C)[Si](F)(c1ccc(CC(=O)NCc2ccccc2)cc1)C(C)(C)C` yielded a half-life in series [1] of more than 12.5 days.

The term IC50 denotes the midpoint of a concentration-inhibition curve. High values mean a need for much substance, low ones inhibition by little substance. The compound `CSCC[C@H](NC(=O)[C@H](CC(C)C)NC(=O)[C@H](Cc1cnc[nH]1)NC(=O)CNC(=O)[C@@H](NC(=O)[C@H](C)NC(=O)[C@H](Cc1c[nH]c2ccccc12)NC(=O)[C@H](CCC(N)=O)NC(=O)[C@H](CC(N)=O)NC(=O)CNC(=O)[C@H](CC(C)C)NC(=O)[C@H](CCCCNC(=O)c1ccc(F)cc1)NC(=O)[C@H](CCC(N)=O)NC(=O)[C@@H]1CCC(=O)N1)C(C)C)C(N)=O` registered an IC50 in series [2] of 5.3 nM. This lies in the single-digit nanomolar range.

`CC(C)C[C@H](NC(=O)C[C@H](O)[C@H](CC(C)C)NC(=O)[C@H](Cc1cnc[nH]1)NC(=O)CN(C)C(=O)[C@@H](NC(=O)[C@H](C)NC(=O)[C@H](Cc1c[nH]c2ccccc12)NC(=O)[C@H](CCC(N)=O)NC(=O)CCCCNC(=O)[C@H](CS(=O)(=O)O)NC(=O)[C@H](CS(=O)(=O)O)NC(=O)C(O)C(O)C(=O)NCCc1ccc([Si]([18F])(C(C)(C)C)C(C)(C)C)cc1)C(C)C)C(N)=O` (stereo partly drawn): the Drug uptake in the series with Pancreas [3] is recorded as 21 % ID/g; with Mus musculus [4], 128 % ID/g; in the series with Spleen [5], 1.32 % ID/g; with Mus musculus [6], 2.44 % ID/g; with Heart [7], 0.85 % ID/g; with Mus musculus [8] it was 5.01 % ID/g. The Drug uptake entry in the series on Mus musculus [9] is “Active”; in the series with Pancreas [10], 46 % ID/g; in the series on Liver [12], 13 % ID/g; in the series on Spleen [13], 2.15 % ID/g; in the series on Lung [14], 1.94 % ID/g; in the series on Muscle tissue [15] it was 0.69 % ID/g. For the same compound, the Drug uptake turned out to be 4.1 % ID/g with Kidney [16]; 0.42 % ID/g with Stomach [19]; 5.37 % ID/g in the series with Blood [20]; 4.2 % ID/g with Lung [21]; 12.6 % ID/g in the series with Intestine [22]; 9.5 % ID/g in the series with Intestine [23]. Moreover, the Drug uptake in series [24] is recorded as 1.24 % ID/g; in the series on Liver [25] it was 25 % ID/g; with Bone [26], 1.09 % ID/g; in series [27] it was 20 % ID/g; with Stomach [28] it was 0.8 % ID/g; with Muscle tissue [29], 0.29 % ID/g. For the same compound, the Drug uptake entry was “Not Active” in the series on Mus musculus [30]; 2.58 % ID/g in the series with Blood [31]; 0.29 % ID/g in the series on Mus musculus [32]; 0.92 % ID/g in the series on Bone [33]; 2.07 % ID/g in the series with Mus musculus [34]; 6 % ID/g in the series with Kidney [35]. Also, the Drug uptake in the series with Mus musculus [36] is on record as 3.47 % ID/g; with Heart [37], 1.37 % ID/g; in the series with Mus musculus [39] it was 0.44 % ID/g; in the series with Mus musculus [41] it was 36 % ID/g; in series [42], 0.51 % ID/g; in [43], 25 % ID/g. Also, the Ratio in [11] is on record as 0.65; in [18], 5.03; in series [38] it was 0.95; in series [40] it was 8.41. For the same compound, the Stability result in [17] is “Stable”.
